The values that follow come from patent US20250283056A1, “MODIFIED O-[…] USEFUL FOR PRODUCTION OF O-METHYLATED PHENOLIC NATURAL PRODUCTS” (The University of Hong Kong, priority 2024, published 2025).

For orientation: Kd means the constant that tells how readily two partners part at equilibrium.

Assay [1] has as its target SsCOMT. Briefly: Isothermal titration calorimetry (ITC), SsCOMT wild type. It is filed as binding, Saccharum spontaneum. As to conditions: 25° C., SsCOMT WT, mean ± standard error from curve fitting. As for the experimental part:
(§1) Isothermal titration calorimetry (ITC) assays were conducted with MicroCal iTC200 (Malvern Panalytical, UK). […] Both cell sample and titrant were equilibrated to ITC buffer consisting of 100 mM HEPES pH 7.9 with 2.5% (v/v) PEG 400. For ITC assays involving pterostilbene, PEG 400 concentration was increased to 5% (v/v). Each run incorporated an initial delay of 60 s prior to the first injection (0.5 μl) and spaced 150 s between the subsequent 19 injections (2.0 μl) at 25° C. During the runs, the cell was continuously stirred at 750 rpm by flat paddle. Results were analysed based on the 2nd to 20th injections using the Origin (MicroCal Software, USA) and PEAQ-ITC software (Malvern Panalytical, UK).
(In general: In ITC the heat of successive injections is recorded.)

The target in the next assay is SbSOMT E310A (Sorghum bicolor, UniProt A0A1B6PFV1, E310A). Description: biochemical. Format: binding. As for the experimental part:
(§2) Desired mutations of SbSOMT were introduced into its construct using specific primers (Table 11). Expression constructs were transformed into Rosetta™ (DE3) competent Escherichia coli cells (Novagen, Germany). Protein expression was induced with 0.1 mM Isopropyl-β-thiogalactopyranoside (IPTG) overnight at 16° C. E. coli cells were harvested, resuspended in lysis buffer (20 mM Tris buffer pH 7.9, 300 mM NaCl, 2.5 mM β-mercaptoethanol), and lysed by sonication. Crude proteins were loaded onto a HisTrap HP column (Cytiva, USA) connected to a AKTA pure chromatography system (Cytiva, USA). Column was washed with 15 column volumes of lysis buffer with 50 mM imidazole. Proteins were eluted over a gradient of 50-500 mM imidazole. Eluate fractions with the target OMT were pooled, digested with TEV protease, and simultaneously dialyzed against a low salt buffer (20 mM Tris pH 7.9, 50 mM NaCl, 2.5 mM β-mercaptoethanol) overnight at 4° C. The dialyzed sample was filtered and flowed through HisTrap to remove His-tagged components. The flowthrough was then loaded to HiTrap Q FF columns (Cytiva, USA) over a gradient of 50-1000 mM NaCl. Polishing was achieved via size-exclusion chromatography using the storage buffer (100 mM HEPES pH 7.9, 100 mM NaCl) as mobile phase. SsSTS was purified under the same conditions except that the pH was adjusted to 7.0 for all buffers. Proteins were concentrated by ultrafiltration and flash frozen for storage at −80° C.
as §1

The target in assay [2] is SbSOMT F337N. Briefly: ITC, SbSOMT F337N mutant protein. Format: binding, Sorghum bicolor. As for the experimental part:
as §2, with “Polishing was achieved via size-exclusion chromatography using the storage buffer (100 mM HEPES pH 7.9, 100 mM NaCl) as mobile phase. SsSTS was purified under the same conditions except that the pH was adjusted to 7.0 for all buffers. Proteins were concentrated by ultrafiltration and flash frozen for storage at −80° C.” left out
(§3) Isothermal titration calorimetry (ITC) assays were conducted with MicroCal iTC200 (Malvern Panalytical, UK). […] Results were analysed based on the 2nd to 20th injections using the Origin (MicroCal Software, USA) and PEAQ-ITC software (Malvern Panalytical, UK).

The target of another assay is SbSOMT I144N/F337N. Description: ITC, SbSOMT I144N/F337N mutant protein. Format: binding, Sorghum bicolor. As for the experimental part:
as §2, with “Polishing was achieved via size-exclusion chromatography using the storage buffer (100 mM HEPES pH 7.9, 100 mM NaCl) as mobile phase. SsSTS was purified under the same conditions except that the pH was adjusted to 7.0 for all buffers. Proteins were concentrated by ultrafiltration and flash frozen for storage at −80° C.” left out
as §3

The target in another assay is SbSOMT (Sorghum bicolor, UniProt A0A1B6PFV1). Description: In vitro OMT enzyme assay, recombinant SbSOMT. It is filed as biochemical. The following applies: two-hour incubation with 100 μM resveratrol. As for the experimental part:
(§4) To screen for OMT activities, purified stilbene products of enzyme assays were separated by a Synergi C18 column (Synergi 4μ Fusion RP 80 Å, 50×2 mm, Phenomenex, USA) under a flow rate of 0.5 ml min-1 over a 6 min linear gradient of 10%-90% B (described below). […] Meanwhile, purified phenylpropanoid products of enzyme assays were separated on the same column connected to a HP1100 series HPLC system (Agilent Technologies, USA) linked to an AP3200-QTRAP mass spectrometer (AB Sciex, China) operating under the multiple-reaction-monitoring (MRM) mode. To quantify these products, assay products were separated on a Kinetex C18 column (Kinetex 2.6 μm C18 100 Å, 100×2.1 mm, Phenomenex, USA) connected to a HP1100 series HPLC system (Agilent Technologies, USA) linked to an AP3200-QTRAP mass spectrometer (AB Sciex, China) operating under the multiple-reaction-monitoring (MRM) mode. A linear gradient of 10%-90% B under a flow rate of 0.3 ml min-1 over 6 min was used to further enhance sensitivity. Total metabolites from all plant tissues were separated by the same Kinetex C18 column connected to the X500R QTOF-HRMS system. A linear gradient under a flow rate of 0.3 ml min-1 over a 20 min linear gradient of 10%-90% B was used.
(§5) Reaction products were extracted twice with ethyl acetate. […] All reactions were done in triplicates.

Assay [3] relates to SsCOMT. Description: In vitro OMT enzyme assay, recombinant SsCOMT. As to conditions: two-hour incubation with 100 μM substrate. It is filed as biochemical, Saccharum spontaneum. As for the experimental part:
as §4, §5

The test system of another assay is SbSOMT H282A. Briefly: Catalytic assay, SbSOMT H282A mutant protein. It is filed as biochemical, Sorghum bicolor. The following applies: one-hour incubation. The text has this: (§6) Data are expressed as yields relative to that of wild-type SbSOMT protein (WT). […] Data are expressed as yields relative to that of wild-type SbSOMT protein (WT). Values refer to means±SD (n=3). Asterisks indicate significant differences between mutant protein and WT (Student's t-test, ***: p<0.001). Tricin was used as an internal standard for quantitation. […] Dots represent individual data points.
(§7) Desired mutations of SbSOMT were introduced into its construct using specific primers (Table 11). Expression constructs were transformed into Rosetta™ (DE3) competent Escherichia coli cells (Novagen, Germany). Protein expression was induced with 0.1 mM Isopropyl-β-thiogalactopyranoside (IPTG) overnight at 16° C. E. coli cells were harvested, resuspended in lysis buffer (20 mM Tris buffer pH 7.9, 300 mM NaCl, 2.5 mM β-mercaptoethanol), and lysed by sonication. […]
(§8) For initial screening of OMT activities, purified OMT enzymes (10 μg) were incubated in 100 mM HEPES buffer (pH 7.9), 200 μM S-adenosyl-L-methionine (SAM) and 100 μM of phenylpropanoid or stilbene substrates (final volume 200 μl) at 30° C. for 2 h. Enzyme kinetics were determined by incubating 1 μg protein with 100 mM HEPES buffer (pH 7.9), 300 μM SAM, and stilbene concentrations ranging from 5 to 200 μM at 30° C. for 5 min. […]

Assay [4] concerns SbSOMT F337N. Description: Catalytic assay, SbSOMT F337N mutant protein. It is filed as biochemical, Sorghum bicolor. The following applies: SbSOMT F337N vs WT, resveratrol, one-hour incubation.
Text: as §6, §7, §8

Read-outs that look alike come from different tables or passages of the source.

For the molecule `Oc1ccc(C=Cc2cc(O)cc(O)c2)cc1` [Resveratrol, resveratrol], the equilibrium dissociation constant (Kd) at SsCOMT [1] is 2.78 ± 0.33 µM; on SbSOMT E310A, 18.5 ± 2.58 µM; at SbSOMT F337N [2], “No binding”; on SbSOMT F337N [2] (listed as resveratrol), “undetectable binding affinities”; on SbSOMT I144N/F337N, “No binding”; at SbSOMT I144N/F337N (listed as resveratrol) it was “undetectable binding affinities”. At SbSOMT E310A (SbSOMT mutant E310A, ITC), the “Stoichiometry, N” value was found to be 0.36 ± 0.04. In addition, the “conversion of resveratrol into pterostilbene” value at SbSOMT is “about 60%”. The “formation of O-methylated product” value in the assay with SsCOMT [3] was “only small amounts of pinostilbene were generated”. Besides, the “catalytic activity with resveratrol” value with SbSOMT H282A is given as “catalytically defective”. Besides, in the assay on SbSOMT F337N [4], the “less pterostilbene produced compared to WT” value is listed as 97.7%. The “more pinostilbene accumulated compared to WT” value in the assay on SbSOMT F337N [4] was 50.8%.
